Experimental data taken from patent publication US20200017496A1 (priority 2017, published 2020).
Like-named read-outs stand apart in the source and are kept apart here.

How the values were obtained:
Experiment in all cases: MIC of compounds alone and combined with antibacterials, broth microdilution (CLSI)
Type in all cases: cell-based
[1] = system: Enterobacter cloacae (ECL) isolates; conditions: for MIC: Enterobacter cloacae
Summary of the method: (§1)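 Compound MIC, and antibacterial MIC at each fixed compound level, taken by visual inspection as lowest concentration stopping growth. Inoculum: log-phase bacteria, final 5·10^5 CFU/mL, cation-adjusted Mueller-Hinton broth; 16-20 h, 35° C, ambient air.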

[2] = system: Klebsiella oxytoca (KOX) isolates; conditions: for MIC: Klebsiella oxytoca
Summary of the method: as §1

[3] = system: Klebsiella pneumoniae (KPN) isolates
Summary of the method: as §1

In the case of C=CC1=C(C(=O)O)N2C(=O)[C@@H](NC(=O)/C(=N\OCC(=O)O)c3csc(N)n3)[C@H]2SC1 [FIX, Cefixime], the MIC ([1]; strain ECL 2185D (OXA-163), CLA @ 4 μg/ml+ ATB) is reported as > 128 µg/mL, the MIC ([1]; strain ECL 190310 (AmpC), ATB alone) is reported as > 128 µg/mL and the MIC ([1]; strain ECL 190310 (AmpC), CLA @ 4 μg/ml+ ATB) is reported as > 128 µg/mL. The MIC ([1]; strain ECL 190408 (TEM-1, CTX-M-15, OXA-1), ATB alone) was 512 µg/mL, the MIC ([1]; strain ECL 190408 (TEM-1, CTX-M-15, OXA-1), CLA @ 4 μg/ml+ ATB, read-out: MIC) was 128 µg/mL and the MIC ([1]; strain ECL 200138 (AmpC), ATB alone) was > 128 µg/mL. The MIC ([1]; strain ECL 200138 (AmpC), CLA @ 4 μg/ml+ ATB) was > 128 µg/mL, the MIC ([1]; strain ECL 200322 (TEM-1, CTX-M-15, OXA-1), ATB alone) was > 128 µg/mL and the MIC ([1]; strain ECL 260033 (AmpC), ATB alone) was > 128 µg/mL. For the same compound, the MIC ([1]; strain ECL 260033 (AmpC), CLA @ 4 μg/ml+ ATB) was > 128 µg/mL, the MIC ([1]; strain ECL 260253 (TEM-1, KPC-3), ATB alone) was > 128 µg/mL and the MIC ([1]; strain ECL 260253 (TEM-1, KPC-3), CLA @ 4 μg/ml+ ATB, read-out: MIC) was 64 µg/mL. For the same compound, the MIC ([1]; strain ECL 260323 (AmpC), ATB alone) was > 128 µg/mL, the MIC ([1]; strain ECL 260323 (AmpC), CLA @ 4 μg/ml+ ATB) was > 128 µg/mL and the MIC ([1]; strain ECL 260508 (TEM-1, CTX-M-15), ATB alone) was > 128 µg/mL. The MIC ([1]; strain ECL 260508 (TEM-1, CTX-M-15), CLA @ 4 μg/ml+ ATB) was 32 µg/mL, the MIC ([1]; strain ECL NEM146383 (AmpC), ATB alone) was > 128 µg/mL and the MIC ([1]; strain ECL NEM146383 (AmpC), CLA @ 4 μg/ml+ ATB) was > 128 µg/mL. The MIC ([1]; strain ECL P99 (AmpC), ATB alone) was > 128 µg/mL, the MIC ([1]; strain ECL P99 (AmpC), CLA @ 4 μg/ml+ ATB) was > 128 µg/mL and the MIC ([1]; strain ECL UFR12 (CTX-M-9, OXA-48), ATB alone) was 16 µg/mL. For the same compound, the MIC ([1]; strain ECL UFR12 (CTX-M-9, OXA-48), CLA @ 4 μg/ml+ ATB) was 8 µg/mL, the MIC ([1]; strain ECL UFR13 (TEM-1, SHV-12, CTX-M-9, OXA-48), ATB alone) was > 128 µg/mL and the MIC ([1]; strain ECL UFR13 (TEM-1, SHV-12, CTX-M-9, OXA-48), CLA @ 4 μg/ml+ ATB, read-out: MIC) was 128 µg/mL. The MIC ([1]; strain ECL UFR14 (TEM-1, SHV-12, CTX-M-15, DHA-1, OXA-1, OXA-48), ATB alone) was > 128 µg/mL, the MIC ([1]; strain ECL UFR14 (TEM-1, SHV-12, CTX-M-15, DHA-1, OXA-1, OXA-48), CLA @ 4 μg/ml+ ATB) was > 128 µg/mL and the MIC ([1]; strain ECL UFR60 (TEM-1, CTX-M-15, KPC-2), ATB alone) was > 128 µg/mL. The MIC ([1]; strain ECL UFR60 (TEM-1, CTX-M-15, KPC-2), CLA @ 4 μg/ml+ ATB, read-out: MIC) was 128 µg/mL, the MIC ([1]; strain ECL UFR70 (TEM-1, CTX-M-15, CMY-2, OXA-1, Porin loss), ATB alone) was > 128 µg/mL and the MIC ([1]; strain ECL UFR70 (TEM-1, CTX-M-15, CMY-2, OXA-1, Porin loss), CLA @ 4 μg/ml+ ATB) was > 128 µg/mL. For the same compound, the MIC ([1]; strain ECL UFR84 (TEM-1, AmpC, OXA-1), ATB alone) was > 128 µg/mL, the MIC ([1]; strain ECL UFR84 (TEM-1, AmpC, OXA-1), CLA @ 4 μg/ml+ ATB) was > 128 µg/mL and the MIC ([1]; strain ECL UFR85 (TEM-1, CTX-M-15, AmpC), ATB alone) was > 128 µg/mL. For the same compound, the MIC ([1]; strain ECL UFR85 (TEM-1, CTX-M-15, AmpC), CLA @ 4 μg/ml+ ATB) was > 128 µg/mL, the MIC ([1]; strain ECL UFR194 (OXA-48), ATB alone) was 4 µg/mL and the MIC ([1]; strain ECL UFR194 (OXA-48), CLA @ 4 μg/ml+ ATB) was 8 µg/mL. The MIC ([1]; strain ECL UFR195 (TEM-1, CTX-M-15, OXA-1, OXA-48), ATB alone) was > 128 µg/mL, the MIC ([1]; strain ECL UFR195 (TEM-1, CTX-M-15, OXA-1, OXA-48), CLA @ 4 μg/ml+ ATB) was > 128 µg/mL and the MIC ([1]; strain ECL UFR196 (TEM-1, CTX-M-15, OXA-1, OXA-48), ATB alone) was > 128 µg/mL. For the same compound, the MIC ([1]; strain ECL UFR196 (TEM-1, CTX-M-15, OXA-1, OXA-48), CLA @ 4 μg/ml+ ATB) was > 128 µg/mL, the MIC ([1]; strain ECL UFR200 (TEM-1, SHV-12, KPC-2), ATB alone) was > 128 µg/mL and the MIC ([1]; strain ECL UFR200 (TEM-1, SHV-12, KPC-2), CLA @ 4 μg/ml+ ATB) was 16 µg/mL. The “MIC ATB in combination” value ([1]; strain ECL UFR195, antibacterial combined with AF1 @ 4 μg/mL) was 4 µg/mL, the “MIC ATB in combination” value ([1]; strain ECL UFR195, antibacterial combined with AF1 @ 8 μg/mL) was “<=0.25 μg/mL” and the “MIC ATB in combination” value ([1]; strain ECL UFR196, antibacterial combined with AF1 @ 4 μg/mL) was 16 µg/mL. The “MIC ATB in combination” value ([1]; strain ECL UFR196, antibacterial combined with AF1 @ 8 μg/mL) was 4 µg/mL, the “MIC ATB in combination” value ([1]; strain ECL UFR197, antibacterial combined with AF1 @ 4 μg/mL) was 16 µg/mL and the “MIC ATB in combination” value ([1]; strain ECL UFR197, antibacterial combined with AF1 @ 8 μg/mL) was 1 µg/mL. For the same compound, the “MIC ATB in combination” value ([1]; strain ECL UFR198, antibacterial combined with AF1 @ 4 μg/mL) was 64 µg/mL, the “MIC ATB in combination” value ([1]; strain ECL UFR198, antibacterial combined with AF1 @ 8 μg/mL) was 64 µg/mL and the “MIC ATB in combination” value ([2]; KOX UFR21, AF1 @ 4 μg/mL) was 2 µg/mL. The “MIC ATB in combination” value ([2]; KOX UFR21, AF1 @ 8 μg/mL) was 1 µg/mL, the “MIC ATB in combination” value ([2]; KOX UFR173, AF1 @ 4 μg/mL) was “<=0.25 μg/mL” and the “MIC ATB in combination” value ([2]; KOX UFR173, AF1 @ 8 μg/mL) was “<=0.25 μg/mL”. The “MIC ATB in combination” value ([2]; KOX UFR223, AF1 @ 4 μg/mL) was “<=0.25 μg/mL”, the “MIC ATB in combination” value ([2]; KOX UFR223, AF1 @ 8 μg/mL) was “<=0.25 μg/mL” and the “MIC ATB in combination” value ([2]; KOX UFR224, AF1 @ 4 μg/mL) was “<=0.25 μg/mL”. For the same compound, the “MIC ATB in combination” value ([2]; KOX UFR224, AF1 @ 8 μg/mL) was “<=0.25 μg/mL”, the MIC ([2]; strain KOX UFR21 (TEM-1, CTX-M-15, OXA-48), ATB alone) was > 128 µg/mL and the MIC ([2]; strain KOX UFR21 (TEM-1, CTX-M-15, OXA-48), CLA @ 4 μg/ml+ ATB) was > 128 µg/mL. For the same compound, the MIC ([2]; strain KOX UFR173 (OXY2-2), ATB alone, read-out: MIC) was 16 µg/mL, the MIC ([2]; strain KOX UFR173 (OXY2-2), CLA @ 4 μg/ml+ ATB, read-out: MIC) was 4 µg/mL and the MIC ([2]; strain KOX UFR223 (SHV-11, OXA-48), ATB alone, read-out: MIC) was ≤ 0.125 µg/mL. The MIC ([2]; strain KOX UFR223 (SHV-11, OXA-48), CLA @ 4 μg/ml+ ATB, read-out: MIC) was ≤ 0.25 µg/mL, the MIC ([2]; strain KOX UFR224 (CTX-M-15, OXA-48), ATB alone) was > 128 µg/mL and the MIC ([2]; strain KOX UFR224 (CTX-M-15, OXA-48), CLA @ 4 μg/ml+ ATB, read-out: MIC) was 8 µg/mL. The “MIC ATB in combination” value [3] was >128 µg/mL, the “MIC ATB in combination” value ([3]; KPN 6299, AF1 @ 4 μg/mL) was “<=0.25 μg/mL” and the “MIC ATB in combination” value ([3]; KPN 6299, AF1 @ 8 μg/mL) was “<=0.25 μg/mL”. For the same compound, the “MIC ATB in combination” value ([3]; KPN 110376, AF1 @ 4 μg/mL) was 0.125 µg/mL, the “MIC ATB in combination” value ([3]; KPN 110376, AF1 @ 8 μg/mL) was 0.125 µg/mL and the “MIC ATB in combination” value ([3]; KPN 131119, AF1 @ 4 μg/mL) was “<=0.25 μg/mL”. For the same compound, the “MIC ATB in combination” value ([3]; KPN 131119, AF1 @ 8 μg/mL) was “<=0.25 μg/mL”, the “MIC ATB in combination” value ([3]; KPN 140513, AF1 @ 4 μg/mL) was 4 µg/mL and the “MIC ATB in combination” value ([3]; KPN 140513, AF1 @ 8 μg/mL) was 0.5 µg/mL. The “MIC ATB in combination” value ([3]; KPN 160143, AF1 @ 4 μg/mL) was “<=0.25 μg/mL”, the “MIC ATB in combination” value ([3]; KPN 160143, AF1 @ 8 μg/mL) was “<=0.25 μg/mL” and the “MIC ATB in combination” value ([3]; KPN 190128, AF1 @ 4 μg/mL) was 0.5 µg/mL. For the same compound, the “MIC ATB in combination” value ([3]; KPN 190128, AF1 @ 8 μg/mL) was “<=0.25 μg/mL”, the “MIC ATB in combination” value ([3]; KPN 190270, AF1 @ 4 μg/mL) was 0.5 µg/mL and the “MIC ATB in combination” value ([3]; KPN 190270, AF1 @ 8 μg/mL) was “<=0.25 μg/mL”. The “MIC ATB in combination” value ([3]; KPN 190425, AF1 @ 4 μg/mL) was “<=0.25 μg/mL”.
